From US4910199A, “Imidazo[1,2-]pyridazines for cortical cholinergic deficiencies” (Sanofi, priority 1987, dated 1990)

Experiments:
[1] = test system: rotatory behavior induced by intrastriatal pirenzepine; experiment: antagonism of rotatory behavior induced by intrastriatal injection of pirenzepine in mice; format: in vivo, mouse (female, Swiss, CD 1); details: Mus musculus, ip; 50% reduction in number of rotations; i.p. 15 minutes before pirenzepine 1 μg into right striatum
Method: The intrastriatal injection of PZ into mice induces rotatory behavior. The antagonism of this behavior by the products according to the invention was studied. The products according to the invention are injected intraperitoneally (i.p.) after solubilization in distilled water or suspension in a 5% solution of gum arabic. The control animals receive an injection of the pure solvent under the ssame conditions. The animals used are female mice (Swiss, CD 1, Charles River, France) with a body weight of between 25 and 30 grams. The pirenzepine is dissolved in a phosphate buffer and the pH of the solution is 6. The test products of their solvents are injected intraperitoneally in a volume of 0.4 ml per 20 g of body weight, 15 minutes before a direct injection of pirenzepine into the right striatum of the mouse at a dose of 1 μg in 1 μl of solvent, according to the method described by P. WORMS et al. in Eur. J. Pharmacol., 1986, 121, 395-401. The number of contralateral rotations (rotations in the opposite direction to the side injected) was counted for three 2-minute periods after injection of the pirenzepine: 2nd to 4th, 8th to 10th and 13th to 15th minutes. Each treatment consists of 3 to 4 doses with 10 animals per dose. The total number of rotations and the percentage antagonism with respect to the control group are calculated for each treatment. The 50% effective dose (ED50), i.e. the dose which causes a 50% reduction in the number of rotations induced by pirenzepine, is determined graphically for each product.

[2] = target: T1, M1-type muscarinic cholinergic receptor (Rattus norvegicus, UniProt P08482); experiment: affinity for the M1-type muscarinic cholinergic receptor ([3H]-pirenzepine displacement, rat hippocampus homogenate); format: binding; details: for IC50: [3H]-PZ 1 nM, rat hippocampus homogenate, 2 h at 4° C., pH 7.40; for r = (M2/M1): ratio of the IC50 values for M2 (3H-NMS) and M1 (3H-pirenzepine), selectivity
T1 sequence (P08482 1-460): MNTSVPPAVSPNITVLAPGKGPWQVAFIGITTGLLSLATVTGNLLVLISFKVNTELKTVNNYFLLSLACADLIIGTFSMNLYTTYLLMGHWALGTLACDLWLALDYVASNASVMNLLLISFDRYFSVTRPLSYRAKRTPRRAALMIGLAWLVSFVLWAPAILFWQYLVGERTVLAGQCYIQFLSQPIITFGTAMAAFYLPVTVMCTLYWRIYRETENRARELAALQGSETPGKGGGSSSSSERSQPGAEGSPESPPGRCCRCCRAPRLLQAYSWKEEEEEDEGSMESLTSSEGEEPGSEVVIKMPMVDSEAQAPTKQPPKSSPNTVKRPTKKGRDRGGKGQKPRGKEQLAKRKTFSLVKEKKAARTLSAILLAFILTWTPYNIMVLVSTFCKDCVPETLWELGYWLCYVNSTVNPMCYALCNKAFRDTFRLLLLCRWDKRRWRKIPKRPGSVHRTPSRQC
Method: The interaction of the molecules with the M1 -type muscarinic receptors was studied by in vitro measurement, on a rat hippocampus homogenate, of the displacement of tritiated pirenzepine ([^3 H]-PZ) from its specific binding sites. Aliquots (10 μl) of a 5% (w/v) rat hippocampus homogenate in an Na2 HPO4 buffer (50 mM, pH 7.40) are incubated for 2 h at 4° C. in the presence of [^3 H]-PZ (76 Ci/nmol; final concentration 1 nM) and increasing concentrations of the test product. The final volume is 2 ml. The reaction is stopped by centrifugation for 10 min at 50 000×g. After decantation and washing of the residues, the bound radio-activity is counted by liquid scintillation. The non-specific binding is determined in the presence of 10 μM atropine sulfate. The 50% inhibitory concentration (IC50) is determined graphically.

[3] = target: T2, M2-type muscarinic cholinergic receptor (Cavia porcellus, UniProt H0VRN8); experiment: affinity for the M2-type muscarinic cholinergic receptor ([3H]-N-methylscopolamine displacement, smooth guinea-pig ileum muscle homogenate); format: binding; details: [3H]-NMS 0.3 nM, 20 min at 30° C., pH 7.5
T2 construct: on a smooth guinea-pig ileum muscle homogenate; from tissue; host or cells: guinea-pig ileum smooth muscle homogenate
T2 sequence (H0VRN8 1-466): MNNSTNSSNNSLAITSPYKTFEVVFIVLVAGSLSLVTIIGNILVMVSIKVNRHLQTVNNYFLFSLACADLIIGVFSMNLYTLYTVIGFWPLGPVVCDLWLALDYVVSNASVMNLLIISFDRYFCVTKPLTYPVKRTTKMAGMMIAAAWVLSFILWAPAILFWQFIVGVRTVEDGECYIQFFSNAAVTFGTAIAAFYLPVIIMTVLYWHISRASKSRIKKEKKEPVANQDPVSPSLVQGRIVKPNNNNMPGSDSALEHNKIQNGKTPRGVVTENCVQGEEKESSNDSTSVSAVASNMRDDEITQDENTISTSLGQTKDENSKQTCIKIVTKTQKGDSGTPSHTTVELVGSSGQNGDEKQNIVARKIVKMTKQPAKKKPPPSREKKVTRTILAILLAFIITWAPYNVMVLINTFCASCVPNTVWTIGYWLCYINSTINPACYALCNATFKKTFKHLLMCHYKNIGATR
Method: The M1 -type receptors are concentrated in certain regions of the brain, such as the hippocampus, the cerebral cortex and the striatum, and also in the sympathetic ganglia. These binding sites can be selectively labeled with [^3 H]-pirenzepine ([^3 H]-PZ). The M2 -type rreceptors predominate in the heart and the ileum and can be labeled with [^3 H]-N-methylscopolamine ([^3 H]-NMS). The selectivity of the compounds of the invention with respect to the M1 and M2 sites was determined by studying their in vitro interaction with [^3 H]-PZ and [^3 H]-NMS firmly bound with a high affinity to rat hippocampus membranes and smooth guinea-pig ileum muscle, respectively.
The interaction with the M2 -type muscarinic receptors was studied by in vitro measurement, on a smooth guinea-pig ileum muscle homogenate, of the displacement of tritiated N-methylscopolamine ([^3 H]-NMS) from its specific binding sites. Aliquots (50 μl) of a 0.625% (w/v) smooth guinea-pig ileum muscle homogenate in HEPES buffer (20 mM) containing NaCl (100 mM) and MgCl2 (10 mM) (final pH: 7.5) are incubated for 20 min at 30° C. in the presence of [^3 H]-NMS ([…]; final concentration 0.3 nM) and increasing concentrations of the test products. The final volume is 1 ml. The reaction is topped by centrifugation for 5 min at 15 000×g. The non-specific binding is determined in the presence of 10 μM atropine sulfate. (Ref.: R. Hammer, C. P. Berrie, N. I. M. Birdsall, A. S. V. Burgen and E. C. Hulme, Nature, 283, 90-92, 1980; E. C. Hulme, N. I. M. Birdsall, A. S. V. Burgen and P. Mettha, Mol. Pharmacol., 14, 737-750, 1978.)
Table 5 indicates the affinities of the products of the invention for the M1 and M2 receptors. The results are expressed as 50 percent inhibitory concentrations (IC50), i.e. the concentration (in μM) which induces the displacement of 50% of the tritiated ligand bound to the membrane receptors. The IC50 for ^3 H-pirenzepine displacement represents the affinity for the M1 receptor; The IC50 for ^3 H-NMS displacement represents the affinity for the M2 receptor.

IC50 [2] [µM] | r = (M2/M1) [2] | IC50 [3] [µM] | SMILES | ED50 [1] [mg/kg]
 |  |  | Clc1ccc(-c2ccc3ncc(CN4CCOCC4)n3n2)cc1 [SR 96109 A] | 8
 |  |  | c1ccc(-c2ccc3ncc(CN4CCOCC4)n3n2)cc1 [SR 96068 A] | 10
 |  |  | CN(C)Cc1cnc2ccc(-c3ccccc3)nn12 [SR 96070 A] | 3
 |  |  | c1ccc(-c2cc(-c3ccccc3)c3ncc(CN4CCOCC4)n3n2)cc1 [SR 96111 A] | 7
8 |  |  | COc1cccc(-c2cc(C)c3ncc(CN4CCOCC4)n3n2)c1 [SR 96088 A] | 
0.4 | 162 | 65 | CCN(CC)Cc1cn2nc(-c3cccc(OC)c3)cc(C)c2n1 [SR 96095 A] | 5
1.5 | 66 | 100 | CCN(CC)Cc1cn2nc(-c3ccccc3)ccc2n1 [SR 96069 A] | 
3 | > 33 | > 100 | Clc1ccc(-c2ccc3nc(CN4CCOCC4)cn3n2)cc1 [SR 96089 A] | 
 |  |  | c1ccc(-c2ccc3nc(CN4CCOCC4)cn3n2)cc1 [SR 95842 A] | 3

SMILES | IC50 [2] [µM] | r = (M2/M1) [2] | IC50 [3] [µM] | ED50 [1] [mg/kg]
Cc1cc(-c2ccccc2)nn2c(CN3CCOCC3)cnc12.Cl.Cl [SR 95950 A, 8-Methyl-3-morpholinomethyl-6-phenylimidazo[1,2-b]pyridazine dihydrochloride] | 1.4 | > 71 | > 100 | 5
CCN(CC)Cc1cn2nc(-c3ccccc3)cc(C)c2n1.Cl.Cl [SR 96052 A, 2-Diethylaminomethyl-8-methyl-6-phenylimidazo[1,2-b]pyridazine dihydrochloride] | 0.5 | 130 | 65 | 8
